BindingDB's records for doi:10.1021/acs.jmedchem.7b01322 (National Health Research Institutes, 2018)

Assay: Antagonist activity at CXCR4 in human CCRF-CEM cells assessed as inhibition of CXCL12-induced CXCR4+ cell migration pre-incubated for 10 mins before CXCL12 addition and measured after 2.5 hrs by flow cytometric analysis

## Cc1cc(NC2CCN(C(=O)CCNCC(=O)O)CC2)nc(NCc2cn(CCCNCCCNC3CCCCC3)nn2)n1
  EC50: 14 nM
